# Measured values taken from patent US20070048247A1, “Deodorizing tablets” (Kimberly-Clark Worldwide, Inc., priority 2005, published 2007).
# Legend:
# [1] = Example 3 urine odor panel ranking; parameters: species or system Human; details: for Average Urine Odor Ranking (with statistical corrections), Avg. Score: ignoring statistical anomalies
# Protocol: (§1) The effectiveness of various quinone compounds in reducing urine odor was compared. […] Human female urine was initially collected and pooled by a nurse on staff at Kimberly-Clark Corporation. The pooled urine was added to mason jars in 50-milliliter aliquots using an automated pipette aid. […] The mason jars were placed in an incubator overnight at 37° C.
# (§2) In addition to ranking the jars from least to most malodorous (on a scale from 1 to 7, with 7 being the most malodors), panelists were also asked to judge whether there were secondary (non-urine) odors present and, if so, the extent that the secondary odors were unpleasant (on a scale from 1 to 5, with 5 being extremely unpleasant).
# In this assessment, panelists were given instructions to rank the least malodorous jar as “1” and the most malodorous jar as “10,” remaining free to rank the other jars between 2-9.
# [2] = Example 3 secondary (non-urine) odor ranking; parameters: species or system Human
# Protocol: as §1, §2
# [3] = Solubility of powder in urine
# [4] = Example 5 urine odor panel ranking; parameters: species or system Human
# Protocol: Assessments were conducted the following day by asking panelists to rate each jar from 1 (least urine malodor) to 8 (most urine malodor). The results are set forth below in Tables 15-18.
# [5] = Example 6 urine odor panel ranking; parameters: species or system Human; details: as Example 5, 1 least, 8 most urine malodor
# Excerpt: The quinone compounds chosen for this example were Alizarin Blue Black B, Remazol Brilliant Blue R and Acid Green 25. The results are set forth below in Tables 19 and 20.
# [6] = Example 7 urine odor panel ranking (16 millimolar); parameters: species or system Human; details: 16 millimolar in urine, 1 least, 10 most urine malodor
# Protocol: The effectiveness of various quinone compounds in reducing urine odor was compared. […] Human female urine was initially collected and pooled at Kimberly-Clark Corporation. The pooled urine was added to mason jars in 50-milliliter aliquots using an automated pipette aid. Powders of the aforementioned quinone compounds (commercially available from Sigma-Aldrich Chemical Co., Inc. of St. Louis, Missouri and Noveon Hilton Davis, Inc. of Cincinnati, Ohio) were weighed and placed into the mason jars containing 50 milliliters of urine so that the final concentration of the powder was 16 millimolar (equivalent to 1 wt. %). The mason jars were placed in an incubator overnight at 37° C. The experimental setup is set forth in more detail below in Table 21.
# Jars were wrapped in foil and placed in an incubator at 37° C. overnight. The jars were divided into four groups (C-F), each sharing the same control jar of urine alone (no powder). Assessments were conducted the following day by asking panelists to rate each jar from 1 (least urine malodor) to 10 (most urine malodor).
# [7] = Example 1 urine odor panel ranking; parameters: species or system Human; details: 8 millimolar in urine
# Excerpt: Human female urine was initially collected and pooled by a nurse on staff at Kimberly-Clark Corporation. […] Powders of Acid Blue 129 and Acid Green 27 (commercially available from Sigma-Aldrich Chemical Co., Inc. of St. Louis, Mo.), as well as D&C Green No. 5 (commercially available from Noveon Hilton Davis, Inc. of Cincinnati, Ohio), were then weighed and placed into the mason jars containing 50 milliliters of urine so that the final concentration of the powder was 8 millimolar (equivalent to 0.5 wt. %). […] A score of “10” was assigned to the most malodorous jar and a score of “1” was assigned to the least malodorous jar.
# [8] = Example 3 first grouping, 8 millimolar in urine, scale 1 to 7, 7 most malodorous
# [9] = Example 3 second grouping, 8 millimolar in urine, 1 least malodorous
# [10] = Example 5, 8 mM in 50 milliliters of urine
# [11] = Example 7, 16 mM in 50 milliliters of urine
# [12] = Example 5 Group B, 8 mM in urine, 1 least, 8 most urine malodor
# [13] = Example 3 top performers of both groupings, after 24 hours, 1 least, 10 most malodorous
# [14] = Example 3 top performers, after 24 hours
# [15] = Example 3 top performers, after 24 hours, 1 least, 10 most malodorous
# [16] = after 6 hours, 1 least, 10 most malodorous
# [17] = after 24 hours, 1 least, 10 most malodorous
# [18] = Example 5 Group A, 8 mM in urine, 1 least, 8 most urine malodor
structure (smiles),measurement,setting,value
"O=C1C=C(S(=O)(=O)[O-])c2ccccc2C1=O.[K+] [1,2 Naphthaquinone]",urine odor reduction (in words),[1]; Example 3 first grouping,effectively reduced urine odor
same,"Average Urine Odor Ranking, Avg. Score",[1]; [8],3.8
same,Urine Odor Ranking 2 (number of panelists),[1]; [8],1
same,Urine Odor Ranking 3 (number of panelists),[1]; [8],2
same,Urine Odor Ranking 4 (number of panelists),[1]; [8],1
same,Urine Odor Ranking 7 (number of panelists),[1]; [8],1
same,secondary odor (in words),[2]; Example 3 first grouping,unpleasant secondary smell was found to be present
"O=C1C=C(S(=O)(=O)[O-])C(=O)c2ccccc21.[K+] [1,4 Naphthaquinone, 1,4 naphthaquinone-2-sulfonic acid potassium salt]","Average Urine Odor Ranking, Avg. Score",[1]; [9],1.8
same,Urine Odor Ranking 1 (number of panelists),[1]; [9],2
same,Urine Odor Ranking 2 (number of panelists),[1]; [9],2
same,Urine Odor Ranking 3 (number of panelists),[1]; [9],1
same,secondary odor (in words),[2]; Example 3 second grouping,unpleasant secondary odor
Nc1cc(S(=O)(=O)[O-])c(O)c2c1C(=O)c1c(O)c(S(=O)(=O)[O-])cc(N)c1C2=O.[Na+].[Na+] [Acid Blue 45],Soluble?,[3]; [10],Yes
same,Soluble?,[3]; [11],Mostly
same,"Average Urine Odor Ranking, Avg. Score",[1]; [9],3.4
same,Urine Odor Ranking 2 (number of panelists),[1]; [9],1
same,Urine Odor Ranking 3 (number of panelists),[1]; [9],2
same,Urine Odor Ranking 4 (number of panelists),[1]; [9],1
same,Urine Odor Ranking 5 (number of panelists),[1]; [9],1
same,odor reduction performance (in words),[4]; Example 5 Group B,performed well
same,"Average Rankings (Group B), Avg. Score",[4]; [12],3.75
same,Urine Odor Ranking 1 (number of panelists),[4]; [12],2
same,Urine Odor Ranking 6 (number of panelists),[4]; [12],1
same,Urine Odor Ranking 7 (number of panelists),[4]; [12],1
same,"Average Rankings, Avg. Score",[5],5.5
same,Urine Odor Ranking 2 (number of panelists),[5],1
same,Urine Odor Ranking 6 (number of panelists),[5],1
same,Urine Odor Ranking 7 (number of panelists),[5],2
same,"Average Rankings (Group E), Avg. Score",[6]; Example 7 Group E,6.4
same,Urine Odor Ranking 3 (number of panelists),[6]; Example 7 Group E,2
same,Urine Odor Ranking 8 (number of panelists),[6]; Example 7 Group E,2
same,Urine Odor Ranking 10 (number of panelists),[6]; Example 7 Group E,1
Cc1cc(C)c(Nc2cc(S(=O)(=O)[O-])c(N)c3c2C(=O)c2ccccc2C3=O)c(C)c1.[Na+] [Acid Blue 129],Soluble?,[3]; [10],Mostly
same,Soluble?,[3]; [11],Somewhat
same,"Average Urine Odor Ranking, Avg. Score",[1]; [9],1.8
same,Urine Odor Ranking 1 (number of panelists),[1]; [9],3
same,Urine Odor Ranking 3 (number of panelists),[1]; [9],2
same,Urine Odor Ranking 1 (number of panelists),[1]; [13],1
same,Urine Odor Ranking 3 (number of panelists),[1]; [13],1
same,Urine Odor Ranking 4 (number of panelists),[1]; [13],1
same,Urine Odor Ranking 5 (number of panelists),[1]; [13],1
same,Urine Odor Ranking 6 (number of panelists),[1]; [13],1
same,odor reduction (in words),[1]; [14],achieved the best odor reduction
same,"Average Urine Odor Ranking, Avg. Score",[1]; [15],3.8
same,"Average Urine Odor Ranking (with statistical corrections), Avg. Score",[1]; [14],3.8
same,odor reduction performance (in words),[4]; Example 5 Group B,performed well
same,"Average Rankings (Group B), Avg. Score",[4]; [12],5
same,Urine Odor Ranking 2 (number of panelists),[4]; [12],1
same,Urine Odor Ranking 5 (number of panelists),[4]; [12],1
same,Urine Odor Ranking 6 (number of panelists),[4]; [12],1
same,Urine Odor Ranking 7 (number of panelists),[4]; [12],1
same,reducing urine malodor (in words),[7],functioned effectively in reducing urine malodor
same,Avg. Ranking (odor),[7]; [16],1.6
same,Ranking 1 (number of panelists),[7]; [16],4
same,Ranking 4 (number of panelists),[7]; [16],1
same,Avg. Ranking (odor),[7]; [17],1.3
same,Ranking 1 (number of panelists),[7]; [17],5
same,Ranking 3 (number of panelists),[7]; [17],1
same,"Average Rankings (Group E), Avg. Score",[6]; Example 7 Group E,6
same,Urine Odor Ranking 1 (number of panelists),[6]; Example 7 Group E,1
same,Urine Odor Ranking 4 (number of panelists),[6]; Example 7 Group E,1
same,Urine Odor Ranking 7 (number of panelists),[6]; Example 7 Group E,1
same,Urine Odor Ranking 9 (number of panelists),[6]; Example 7 Group E,2
Cc1ccc(Nc2ccc(Nc3ccc(C)cc3S(=O)(=O)[O-])c3c2C(=O)c2ccccc2C3=O)c(S(=O)(=O)[O-])c1.[Na+].[Na+] [Acid Green 25],Soluble?,[3]; [10],Yes
same,Soluble?,[3]; [11],Mostly
same,urine odor reduction (in words),[1]; Example 3 first grouping,functioned effectively to reduce odor
same,"Average Urine Odor Ranking, Avg. Score",[1]; [8],2.2
same,Urine Odor Ranking 1 (number of panelists),[1]; [8],3
same,Urine Odor Ranking 2 (number of panelists),[1]; [8],1
same,Urine Odor Ranking 6 (number of panelists),[1]; [8],1
same,"Average Urine Odor Ranking, Avg. Score",[1]; [9],4.4
same,Urine Odor Ranking 1 (number of panelists),[1]; [13],3
same,Urine Odor Ranking 2 (number of panelists),[1]; [13],1
same,Urine Odor Ranking 10 (number of panelists),[1]; [13],1
same,odor reduction (in words),[1]; [14],achieved the best odor reduction
same,"Average Urine Odor Ranking, Avg. Score",[1]; [15],3.0
same,"Average Urine Odor Ranking (with statistical corrections), Avg. Score",[1]; [14],1.3
same,"Average Rankings (Group A), Avg. Score",[4]; [18],3
same,Urine Odor Ranking 2 (number of panelists),[4]; [18],1
same,Urine Odor Ranking 3 (number of panelists),[4]; [18],2
same,Urine Odor Ranking 4 (number of panelists),[4]; [18],1
same,secondary odor (in words),[2]; Example 3 first grouping,not found to be unpleasant by most panelists
same,"Average Rankings, Avg. Score",[5],2.25
same,Urine Odor Ranking 1 (number of panelists),[5],2
same,Urine Odor Ranking 2 (number of panelists),[5],1
same,Urine Odor Ranking 5 (number of panelists),[5],1
same,"Average Rankings (Group F), Avg. Score",[6]; Example 7 Group F,3.2
same,Urine Odor Ranking 1 (number of panelists),[6]; Example 7 Group F,2
same,Urine Odor Ranking 2 (number of panelists),[6]; Example 7 Group F,1
same,Urine Odor Ranking 6 (number of panelists),[6]; Example 7 Group F,2
"O=C1c2ccccc2C(=O)c2c(Nc3cccc(S(=O)(=O)[O-])c3)c(Nc3ccc(S(=O)(=O)[O-])cc3)cc(O)c21.[Na+].[Na+] [Alizarin Blue Black B, Mordant Black 13 (Alizarin Blue Black B)]",Soluble?,[3]; [10],Yes
same,Soluble?,[3]; [11],Yes
same,odor reduction performance (in words),[4]; Example 5 Group A,performed best
same,"Average Rankings (Group A), Avg. Score",[4]; [18],1
same,Urine Odor Ranking 1 (number of panelists),[4]; [18],4
same,"Average Rankings, Avg. Score",[5],2.75
same,Urine Odor Ranking 1 (number of panelists),[5],1
same,Urine Odor Ranking 3 (number of panelists),[5],2
same,Urine Odor Ranking 4 (number of panelists),[5],1
same,"Average Rankings (Group C), Avg. Score",[6]; Example 7 Group C,3
same,Urine Odor Ranking 1 (number of panelists),[6]; Example 7 Group C,1
same,Urine Odor Ranking 3 (number of panelists),[6]; Example 7 Group C,2
same,Urine Odor Ranking 4 (number of panelists),[6]; Example 7 Group C,2
"CCN(Cc1cccc(S(=O)(=O)[O-])c1)c1ccc(C(=C2C=CC(=[N+](CC)Cc3cccc(S(=O)(=O)[O-])c3)C=C2)c2ccccc2S(=O)(=O)[O-])cc1.[Na+].[Na+] [FD&C Blue No. 1, FD&C Blue No.1, reference compound]","Average Urine Odor Ranking, Avg. Score",[1]; [8],4.8
same,Urine Odor Ranking 4 (number of panelists),[1]; [8],1
same,Urine Odor Ranking 5 (number of panelists),[1]; [8],4
same,Secondary Odor Ranking,"[2]; Example 3 first grouping, individual panelist scores, scale 1 to 5, 5 extremely unpleasant",3
